Reference: patent US20240390438A1, “PROBIOTICS SEPARATED FROM RABBIT FECES AND FOOD CONTAINING PROBIOTICS” (AGENT Innovation Co., Ltd., priority 2021, published 2024)
≈ marks a conversion by molar mass, not a printed value. Read-outs that look alike come from different tables or passages of the source.

Columns and labels:
Colony PTA22 = assay: Antibiotic susceptibility test; format: cell-based, Lactiplantibacillus Plantarum; settings: for MIC: Lactiplantibacillus plantarum, PTA22, 24 h; for Minimum inhibitory concentration of the antibiotic to PTA22: 96-well, 37 C 24 h, OD600
Text: (§1) To test bacterial susceptibility to antibiotics, such as Aminoglycosides antibiotics, Sulfonamide antibiotics, Quinolone antibiotics, Ampicillin, Cefotaxime, Chloramphenicol, Erythromycin, Rifampicin and Tetracycline, the experimental protocol were as follow. Further, the Quinolone antibiotics comprise Ciprofloxacin, the Aminoglycosides antibiotics comprise Kanamycin and […], and the Sulfonamide antibiotics comprise Sulfamethoxazole. […] The initial absorbance at 600 nm (OD600) of each well was recorded. Then, the 96-well plates were placed at 37° C. and cultured for 24 hours. Next, the OD600 of each well was measured again to determine minimum inhibitory concentration.

Colony LP2 = assay: Antibiotic susceptibility test; format: cell-based, Lactiplantibacillus Plantarum; settings: for MIC: Lactiplantibacillus plantarum, LP2, 24 h, read-out: Minimum inhibitory concentration of the antibiotic to LP2
Text: as §1

Colony LP19 = assay: Antibiotic susceptibility test; format: cell-based, Lactiplantibacillus Plantarum; settings: for MIC: Lactiplantibacillus plantarum, LP19, 24 h; for Minimum inhibitory concentration of the antibiotic to LP19: 96-well, 37 C 24 h, OD600
Text: as §1

Colony LP5 = assay: Antibiotic susceptibility test; format: cell-based, Lactiplantibacillus Plantarum; settings: for MIC: Lactiplantibacillus plantarum, LP5, 24 h; for Minimum inhibitory concentration of the antibiotic to LP5: 96-well, 37 C 24 h, OD600
Text: as §1

Colony LP1 = assay: Antibiotic susceptibility test; format: cell-based, Lactiplantibacillus Plantarum; settings: for MIC: Lactiplantibacillus plantarum, LP1, 24 h; for Minimum inhibitory concentration of the antibiotic to LP1: 96-well, 37 C 24 h, OD600
Text: as §1

L. plantarum 299v = settings: from Klarin et al., 2019; cited from earlier work
L. plantarum 299 = settings: from Klarin et al., 2019; cited from earlier work
L. pl 24-5D = settings: from Georgieva et al., 2015; cited from earlier work
species L. plantarum = settings: EFSA (2005); cited from earlier work
L. pl 24-2L = settings: from Georgieva et al., 2015; cited from earlier work
Staphylococcus aureus = assay: Minimum inhibitory concentration and minimum bacterial concentration; format: cell-based; settings: antibiotics
Description: (§2) Minimum inhibitory concentration (MIC) refers to the minimum concentration at which the development of bacteria can be blocked and antibacterial resistance can be observed after cultured. The lower MIC means the better effect on bacteria.
(§3) The supernatants of the cultured colonies described above were collected, as cell-free solutions (CFSs), by centrifuge at 5000 rpm after cultured the colonies in a nutrient broth and shaking at 37° C. for 48 hours.
(§4) Next, 100 μL each of the CFSs and 100 μL bacterial solutions of the pathogenic bacteria were respectively added to each well of a 96-well plate. Thus, the total volume in each well was 200 μL. The tested pathogenic bacteria included Salmonella enterica, Shigella sonnei, Klebsiella pneumoniae, Streptococcus pneumoniae, Bacillus cereus, Staphylococcus aureus, Pseudomonas aeruginosa, and Escherichia coli.
(§5) As well, 100 μL each of the nutrient broth containing Ampicillin or Kanamycin and 100 μL bacterial solutions of the pathogenic bacteria were respectively added to each well of a 96-well plate. Thus, the total volume in each well was 200 μL.
(§6) Then, initial values of OD600 in each well were recorded. Subsequently, the 96-well plates were cultured at 37° C. for 24 hours, and the OD600 values thereof were re-recorded for determining the MICs of each colony described above.
(§7) Finally, 100 μL CFSs of the next three concentrations […] MIC were taken to be plated on nutrient agar and then cultured at 37° C. for 48-72 hours. The concentrations of the CFSs that no colonies grown on nutrient agar were determined to be the minimum bacterial concentration (MBCs).

Bacillus cereus = assay: as above; format: cell-based; settings: antibiotics
Description: as §2, §3, §4, §5, §6, §7

Streptococcus pneumoniae = assay: as above; format: cell-based; settings: antibiotics
Description: as §2, §3, §4, §5, §6, §7

Pseudomonas aeruginosa = assay: as above; format: cell-based; settings: antibiotics
Description: as §2, §3, §4, §5, §6, §7

Escherichia coli (ETEC) = assay: as above; format: cell-based; settings: antibiotics
Description: as §2, §3, §4, §5, §6, §7

Shigella sonnei = assay: as above; format: cell-based; settings: antibiotics
Description: as §2, §3, §4, §5, §6, §7

Klebsiella pneumoniae = assay: as above; format: cell-based; settings: antibiotics
Description: as §2, §3, §4, §5, §6, §7

[1] = read-out: Minimum inhibitory concentration of the antibiotic to PTA22, 96-well, 37 C 24 h, OD600
[2] = read-out: Minimum inhibitory concentration of the antibiotic to LP19, 96-well, 37 C 24 h, OD600
[3] = read-out: Minimum inhibitory concentration of the antibiotic to LP5, 96-well, 37 C 24 h, OD600
[4] = read-out: Minimum inhibitory concentration of the antibiotic to LP1, 96-well, 37 C 24 h, OD600
[5] = plated on nutrient agar 48-72 h

| SMILES | MIC (Colony PTA22; [1]) [µg/mL] | MIC (Colony LP2; 96-well, 37 C 24 h, OD600) [µg/mL] | MIC (Colony LP19; [2]) [µg/mL] | MIC (Colony LP5; [3]) [µg/mL] | MIC (Colony LP1; [4]) [µg/mL] | Minimum inhibitory concentration of the antibiotic to L. plantarum 299v (L. plantarum 299v) [µg/mL] | Minimum inhibitory concentration of the antibiotic to L. plantarum 299 (L. plantarum 299) [µg/mL] | Minimum inhibitory concentration of the antibiotic to L. pl 24-5D (L. pl 24-5D) [µg/mL] | Minimum inhibitory concentration of the antibiotic to L. pl 24-2L (L. pl 24-2L) [µg/mL] | also measured |
| --- | --- | --- | --- | --- | --- | --- | --- | --- | --- | --- |
| CN(C)[C@@H]1C(O)=C(C(N)=O)C(=O)[C@@]2(O)C(O)=C3C(=O)c4c(O)cccc4[C@@](C)(O)[C@H]3C[C@@H]12 [Tetracycline] | 64 (≈ 144 µM) | 32 (≈ 72 µM) | 32 (≈ 72 µM) | 32 (≈ 72 µM) | 32 (≈ 72 µM) |  |  |  |  |  |
| Cc1cc(NS(=O)(=O)c2ccc(N)cc2)no1 [Sulfamethoxazole] | > 256 | > 256 | > 256 | > 256 | > 256 |  |  |  |  | Minimum inhibitory concentration of the antibiotic to PTA22 (Colony PTA22): >256 µg/mL; Minimum inhibitory concentration of the antibiotic to LP2 (Colony LP2; 96-well, 37 C 24 h, OD600): >256 µg/mL; Minimum inhibitory concentration of the antibiotic to LP19 (Colony LP19): >256 µg/mL; Minimum inhibitory concentration of the antibiotic to LP5 (Colony LP5): >256 µg/mL; Minimum inhibitory concentration of the antibiotic to LP1 (Colony LP1): >256 µg/mL |
| CO/N=C(\C(=O)N[C@@H]1C(=O)N2C(C(=O)O)=C(COC(C)=O)CS[C@H]12)c1csc(N)n1 [Cefotaxime] | < 0.125 | < 0.125 | < 0.125 | < 0.125 | < 0.125 | 0.094 | 0.094 |  |  |  |
| O=C(O)c1cn(C2CC2)c2cc(N3CCNCC3)c(F)cc2c1=O [Ciprofloxacin] | > 128 | > 128 | > 128 | > 128 | > 128 |  |  |  |  |  |
| CC[C@H]1OC(=O)[C@H](C)[C@@H](O[C@H]2C[C@@](C)(OC)[C@@H](O)[C@H](C)O2)[C@H](C)[C@@H](O[C@@H]2O[C@H](C)C[C@H](N(C)C)[C@H]2O)[C@](C)(O)C[C@@H](C)C(=O)[C@H](C)[C@@H](O)[C@]1(C)O [Erythromycin] | 4 (≈ 5.45 µM) | 2 (≈ 2.73 µM) | 2 (≈ 2.73 µM) | 2 (≈ 2.73 µM) | 1 (≈ 1.36 µM) | 1 | 0.75 | 0.75 | 0.75 | EFSA, MIC breakpoints species L. plantarum (species L. plantarum): 4 µg/mL |
| CO[C@H]1/C=C/O[C@@]2(C)Oc3c(C)c(O)c4c(O)c(c(/C=N/N5CCN(C)CC5)c(O)c4c3C2=O)NC(=O)/C(C)=C\C=C\[C@H](C)[C@H](O)[C@@H](C)[C@@H](O)[C@@H](C)[C@H](OC(C)=O)[C@@H]1C [Rifampicin] | 2 (≈ 2.43 µM) | 1 (≈ 1.22 µM) | 2 (≈ 2.43 µM) | 1 (≈ 1.22 µM) | 1 (≈ 1.22 µM) |  |  |  |  |  |
| O=C(N[C@H](CO)[C@H](O)c1ccc([N+](=O)[O-])cc1)C(Cl)Cl [Chloramphenicol] | 32 (≈ 99 µM) | 8 (≈ 24.8 µM) | 16 (≈ 49.5 µM) | 16 (≈ 49.5 µM) | 8 (≈ 24.8 µM) | 2 | 2 | 6 | 4 | EFSA, MIC breakpoints species L. plantarum (species L. plantarum): 8 µg/mL |
| CN[C@H](CC(C)C)C(=O)N[C@H]1C(=O)N[C@@H](CC(N)=O)C(=O)N[C@H]2C(=O)N[C@H]3C(=O)N[C@H](C(=O)N[C@H](C(=O)O)c4cc(O)cc(O)c4-c4cc3ccc4O)[C@H](O)c3ccc(c(Cl)c3)Oc3cc2cc(c3O[C@@H]2O[C@H](CO)[C@@H](O)[C@H](O)[C@H]2O[C@H]2C[C@](C)(N)[C@H](O)[C@H](C)O2)Oc2ccc(cc2Cl)[C@H]1O [Vancomycin] |  |  |  |  |  | >256 | >256 | >256 | >256 | Minimum inhibitory concentration of the antibiotic to PTA22 (Colony PTA22): >256 µg/mL; MIC (Colony PTA22; read-out: Minimum inhibitory concentration of the antibiotic to PTA22): > 256 µg/mL; Minimum inhibitory concentration of the antibiotic to LP2 (Colony LP2; 96-well, 37 C 24 h, OD600): >256 µg/mL; MIC (Colony LP2): > 256 µg/mL; Minimum inhibitory concentration of the antibiotic to LP19 (Colony LP19): >256 µg/mL; MIC (Colony LP19; read-out: Minimum inhibitory concentration of the antibiotic to LP19): > 256 µg/mL; Minimum inhibitory concentration of the antibiotic to LP5 (Colony LP5): >256 µg/mL; MIC (Colony LP5; read-out: Minimum inhibitory concentration of the antibiotic to LP5): > 256 µg/mL; Minimum inhibitory concentration of the antibiotic to LP1 (Colony LP1): >256 µg/mL; MIC (Colony LP1; read-out: Minimum inhibitory concentration of the antibiotic to LP1): > 256 µg/mL |
| CCN1CCN(c2cc3c(cc2F)c(=O)c(C(=O)O)cn3C2CC2)CC1 [Enrofloxacin] | 64 (≈ 178 µM) | 64 (≈ 178 µM) | 64 (≈ 178 µM) | 64 (≈ 178 µM) | 64 (≈ 178 µM) |  |  |  |  | MIC (Staphylococcus aureus; 37 C 24 h, OD600): 1 µg/mL (≈ 2.78 µM); MBC (Staphylococcus aureus; [5]): 1 µg/mL (≈ 2.78 µM); MIC (Bacillus cereus; 37 C 24 h, OD600): 8 µg/mL (≈ 22.3 µM); MBC (Bacillus cereus; [5]): 8 µg/mL (≈ 22.3 µM); MIC (Streptococcus pneumoniae; 37 C 24 h, OD600): 0.25 µg/mL (≈ 0.696 µM); MBC (Streptococcus pneumoniae; [5]): 0.5 µg/mL (≈ 1.39 µM); MIC (Pseudomonas aeruginosa; 37 C 24 h, OD600): 16 µg/mL (≈ 44.5 µM); MBC (Pseudomonas aeruginosa; [5]): 16 µg/mL (≈ 44.5 µM); MIC (Escherichia coli (ETEC); 37 C 24 h, OD600): 4 µg/mL (≈ 11.1 µM); MBC (Escherichia coli (ETEC); [5]): 8 µg/mL (≈ 22.3 µM); MIC (Shigella sonnei; 37 C 24 h, OD600): < 0.125 µg/mL; MBC (Shigella sonnei; [5]): < 0.125 µg/mL; MIC (Klebsiella pneumoniae; 37 C 24 h, OD600): 32 µg/mL (≈ 89 µM); MBC (Klebsiella pneumoniae; [5]): 32 µg/mL (≈ 89 µM) |
